Experimental findings from US20120214862A1, “MODULATION OF FACTOR 7 EXPRESSION” (ISIS Pharmaceuticals, Inc., priority 2009, published 2012) are described below.

In the oligonucleotide strings, read from the 5' end, every base follows the letter of its sugar. An asterisk marks phosphorothioate; unmarked linkages are phosphodiester. Other units and linkages are bracketed, terminal groups are in braces. A string of capitals states the bases alone. e = 2'-O-(2-methoxyethyl) (MOE); [5mC] = 5-methylcytosine; d = 2'-deoxy (DNA)

Holding throughout (assay type): cell-based
Data set [1] has as its system human Factor 7 mRNA. Briefly: Dose-dependent antisense inhibition of human Factor 7 in HepB3 cells, transfection with lipofectin. Particulars: lipofectin, HepB3 cells, 16 hours. A digest of the protocol:
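HepB3 cells (4,000/well) lipofectin-transfected with antisense oligonucleotide at 3.125 or 6.25 up to 100 nM for ~16 h. Factor 7 mRNA measured by real-time RT-PCR with primer probe set RTS 2927, adjusted to RIBOGREEN total RNA; expressed as percent inhibition versus untreated control cells.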

The subject of data set [2] is human Factor 7 mRNA. Briefly: Antisense inhibition of human Factor 7 mRNA in HepB3 cells, lipofectin, 50 nM, real-time RT-PCR. Particulars: HepB3 cells. An outline of the steps:
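4,000 cells/well; ~24 h exposure; RNA isolated; probe set RTS 2927; normalised to RIBOGREEN® total RNA; % inhibition vs untreated.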
In general terms: Real-time PCR tracks product formation cycle by cycle.

The subject of data set [3] is human Factor 7 mRNA. The experiment in a line: Dose-dependent antisense inhibition of human Factor 7 in HepB3 cells, transfection with electroporation. Here is the method:
(§1) The gapmers were also transfected via electroporation and their dose-dependent inhibition of human Factor 7 mRNA was measured. Cells were plated at a density of 20,000 cells per well and transfected via electroporation with 3.125 μM, 6.25 μM, 12.5 μM, 25 μM, 50 μM, and 100 μM concentrations of antisense oligonucleotide, as specified in Table 15. After a treatment period of approximately 16 hours, RNA was isolated from the cells and Factor 7 mRNA levels were measured by quantitative real-time PCR. Human Factor 7 primer probe set RTS 2927 was used to measure mRNA levels. Factor 7 mRNA levels were adjusted according to total RNA content, as measured by RIBOGREEN®. Results are presented as percent inhibition of Factor 7, relative to untreated control cells.
as §1, with “Cells were” for “The gapmers were also transfected via electroporation and their dose-dependent inhibition of human Factor 7 mRNA was measured. Cells were”, “in Table 16. After a” for “in Table 15. After a”, “cells and human Factor 7” for “cells and Factor 7”

Setting [4] is: gapmers (5-10-5, 3-14-3, 2-13-5 MOE) targeted to nucleobases 4868 to 4899 of SEQ ID NO: 1.
[5] abbreviates: 3.125 μM, 16 hours (Example 7, Table 15).
The mark [6] stands for this setting: 3.125 μM, 16 hours (Example 8, Table 16).
The mark [7] stands for this setting: 6.25 μM, 16 hours (Example 7, Table 15).
Setting [8] is: 6.25 μM, 16 hours (Example 8, Table 16).
[9] abbreviates: 12.5 μM, 16 hours (Example 7, Table 15).
The mark [10] stands for this setting: 12.5 μM, 16 hours (Example 8, Table 16).
Setting [11] is: 25 μM, 16 hours (Example 7, Table 15).
Setting [12] is: 25 μM, 16 hours (Example 8, Table 16).
The mark [13] stands for this setting: 50 μM, 16 hours (Example 7, Table 15).
[14] abbreviates: 50 μM, 16 hours (Example 8, Table 16).
The mark [15] stands for this setting: 100 μM, 16 hours (Example 7, Table 15).
Setting [16] is: 100 μM, 16 hours (Example 8, Table 16).

As to “422142 (antisense eG*eA*eG*eT*eT*d[5mC]*dT*dG*d[5mC]*dA*dG*dG*dA*dG*d[5mC]*eG*eG*e[5mC]*e[5mC]*eT) [compound 422142]”, the “percent inhibition of Factor 7 mRNA, relative to untreated control cells” value was found to be 16% in data set [1] (3.125 nM); 51% in data set [1] (12.5 nM); 66% in data set [1] (25 nM); 72% in data set [1] (50 nM); 68% in data set [1] (100 nM); 34% in data set [1]. The “percent inhibition of Factor 7 mRNA, relative to untreated control cells” value in data set [3] (setting [5]) was determined as 26%; in data set [3] (setting [6]) it was 34%; in data set [3] (setting [7]), 47%; in data set [3] (setting [8]) it was 47%; in data set [3] (setting [9]), 63%; in data set [3] (setting [10]), 62%. Besides, the “percent inhibition of Factor 7 mRNA, relative to untreated control cells” value was determined as 67% in data set [3] (setting [11]); 67% in data set [3] (setting [12]); 77% in data set [3] (setting [13]); 65% in data set [3] (setting [14]); 78% in data set [3] (setting [15]); 65% in data set [3] (setting [16]). Besides, the “% Inhibition of human Factor 7 mRNA levels” value (shortened to “% Inhibition”) in data set [2] (setting [4]) came out at 73%.
On to “422140 (antisense eG*eT*eT*e[5mC]*eT*dG*d[5mC]*dA*dG*dG*dA*dG*d[5mC]*dG*dG*e[5mC]*e[5mC]*eT*eA*eA) [compound 422140]”, for which the “percent inhibition of Factor 7 mRNA, relative to untreated control cells” value in data set [1] (3.125 nM) is 18%; in data set [1] (12.5 nM), 49%; in data set [1] (25 nM), 64%; in data set [1] (50 nM), 74%; in data set [1] (100 nM), 74%; in data set [1], 35%. The “percent inhibition of Factor 7 mRNA, relative to untreated control cells” value is given as 29% in data set [3] (setting [5]); 34% in data set [3] (setting [7]); 51% in data set [3] (setting [9]); 64% in data set [3] (setting [11]); 69% in data set [3] (setting [13]); 77% in data set [3] (setting [15]). Also, the “% Inhibition” value in data set [2] (setting [4]) is 74%.
As to “422177 (antisense e[5mC]*e[5mC]*e[5mC]*dG*d[5mC]*d[5mC]*dG*dG*d[5mC]*dT*d[5mC]*dT*dG*d[5mC]*dT*d[5mC]*dA*eT*e[5mC]*e[5mC]) [compound 422177]”, the “percent inhibition of Factor 7 mRNA, relative to untreated control cells” value amounted to 12% in data set [1] (3.125 nM); 44% in data set [1] (12.5 nM); 64% in data set [1] (25 nM); 81% in data set [1] (50 nM); 88% in data set [1] (100 nM); 24% in data set [1]. Also, the “percent inhibition of Factor 7 mRNA, relative to untreated control cells” value in data set [3] (setting [5]) was 3%; in data set [3] (setting [7]), 10%; in data set [3] (setting [9]) it was 29%; in data set [3] (setting [11]), 21%; in data set [3] (setting [13]) it was 31%; in data set [3] (setting [15]), 63%. Besides, the “% Inhibition” value in data set [2] (gapmers targeted to nucleobases 13760 to 13789 of SEQ ID NO: 1 (Table 10)) is on record as 74%.
On to “422087 (antisense e[5mC]*eA*eT*eG*e[5mC]*dA*dT*dG*dG*dT*dG*dA*dT*dG*d[5mC]*eT*eT*e[5mC]*eT*eG) [compound 422087]”, for which the “percent inhibition of Factor 7 mRNA, relative to untreated control cells” value was found to be 14% in data set [1] (3.125 nM); 51% in data set [1] (12.5 nM); 73% in data set [1] (25 nM); 83% in data set [1] (50 nM); 90% in data set [1] (100 nM); 24% in data set [1]. In addition, the “percent inhibition of Factor 7 mRNA, relative to untreated control cells” value turned out to be 22% in data set [3] (setting [5]); 19% in data set [3] (setting [6]); 26% in data set [3] (setting [7]); 38% in data set [3] (setting [8]); 48% in data set [3] (setting [9]); 66% in data set [3] (setting [10]). In addition, the “percent inhibition of Factor 7 mRNA, relative to untreated control cells” value is 57% in data set [3] (setting [11]); 75% in data set [3] (setting [12]); 72% in data set [3] (setting [13]); 80% in data set [3] (setting [14]); 80% in data set [3] (setting [15]); 87% in data set [3] (setting [16]). In data set [2] (gapmers targeted to nucleobases 15188 to 15211 of SEQ ID NO: 1 (Table 13)), the “% Inhibition” value turned out to be 83%.
Take “422130 (antisense eG*e[5mC]*e[5mC]*eT*eG*dA*dG*dG*d[5mC]*d[5mC]*dA*dG*d[5mC]*dA*dG*eA*eT*e[5mC]*eA*e[5mC]) [compound 422130]”: the “percent inhibition of Factor 7 mRNA, relative to untreated control cells” value in data set [1] (3.125 nM) came to 4%; in data set [1] (12.5 nM), 34%; in data set [1] (25 nM), 59%; in data set [1] (50 nM) it was 77%; in data set [1] (100 nM), 85%; in data set [1], 15%. In addition, the “percent inhibition of Factor 7 mRNA, relative to untreated control cells” value in data set [3] (setting [5]) is recorded as 28%; in data set [3] (setting [6]), 14%; in data set [3] (setting [7]), 29%; in data set [3] (setting [8]) it was 24%; in data set [3] (setting [9]) it was 59%; in data set [3] (setting [10]) it was 61%. Also, the “percent inhibition of Factor 7 mRNA, relative to untreated control cells” value worked out at 61% in data set [3] (setting [11]); 68% in data set [3] (setting [12]); 73% in data set [3] (setting [13]); 82% in data set [3] (setting [14]); 86% in data set [3] (setting [15]); 88% in data set [3] (setting [16]). The “% Inhibition” value in data set [2] (gapmers targeted to nucleobases 14707 to 14732 of SEQ ID NO: 1 (Table 11)) is on record as 79%.
“422295 (antisense e[5mC]*eG*dA*dG*dT*dT*d[5mC]*dT*dG*d[5mC]*dA*dG*dG*dA*dG*e[5mC]*eG*eG*e[5mC]*e[5mC]) [compound 422295]”: the “percent inhibition of Factor 7 mRNA, relative to untreated control cells” value in data set [1] (3.125 nM) is listed as 17%; in data set [1] (12.5 nM), 44%; in data set [1] (25 nM) it was 64%; in data set [1] (50 nM) it was 80%; in data set [1] (100 nM) it was 85%; in data set [1], 22%. The “percent inhibition of Factor 7 mRNA, relative to untreated control cells” value in data set [3] (setting [5]) was 10%; in data set [3] (setting [7]) it was 8%; in data set [3] (setting [9]) it was 37%; in data set [3] (setting [11]) it was 58%; in data set [3] (setting [13]), 68%; in data set [3] (setting [15]), 80%. Further, in data set [2] (setting [4]), the “% Inhibition” value was 74%.
